From patent US10501461B2, “Tyrosine amide derivatives as Rho-kinase inhibitors” (CHIESI FARMACEUTICI S.P.A., priority 2017, dated 2019)

Legend:
[1] = biological target: Rho kinase 1 (ROCK-I) (Homo sapiens, UniProt Q13464); assay: In vitro Rho kinase inhibitory activity assay (ADP-Glo), Rho kinase 1; assay type: biochemical; settings: 10 μM ATP, 25° C., expressed as range of activity
In short: (§1)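 Each kinase (ROCK1 or ROCK2) sat with compound for 30 min at 25 °C before 10 μM ATP started a 1 h reaction on 2.5 μM myelin basic protein (Tris pH 7.5, MgCl2, BSA, DTT, 1% DMSO). ADP formed was read by ADP-Glo luminescence. Dose-response IC50s were converted to Ki by Cheng-Prusoff.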

[2] = biological target: Rho kinase 2 (ROCK-II) (Homo sapiens, UniProt O75116); assay: In vitro Rho kinase inhibitory activity assay (ADP-Glo), Rho kinase 2; assay type: biochemical; settings: 10 μM ATP, 25° C., expressed as range of activity
Chain of Rho kinase 2 (ROCK-II) (O75116 whole entry): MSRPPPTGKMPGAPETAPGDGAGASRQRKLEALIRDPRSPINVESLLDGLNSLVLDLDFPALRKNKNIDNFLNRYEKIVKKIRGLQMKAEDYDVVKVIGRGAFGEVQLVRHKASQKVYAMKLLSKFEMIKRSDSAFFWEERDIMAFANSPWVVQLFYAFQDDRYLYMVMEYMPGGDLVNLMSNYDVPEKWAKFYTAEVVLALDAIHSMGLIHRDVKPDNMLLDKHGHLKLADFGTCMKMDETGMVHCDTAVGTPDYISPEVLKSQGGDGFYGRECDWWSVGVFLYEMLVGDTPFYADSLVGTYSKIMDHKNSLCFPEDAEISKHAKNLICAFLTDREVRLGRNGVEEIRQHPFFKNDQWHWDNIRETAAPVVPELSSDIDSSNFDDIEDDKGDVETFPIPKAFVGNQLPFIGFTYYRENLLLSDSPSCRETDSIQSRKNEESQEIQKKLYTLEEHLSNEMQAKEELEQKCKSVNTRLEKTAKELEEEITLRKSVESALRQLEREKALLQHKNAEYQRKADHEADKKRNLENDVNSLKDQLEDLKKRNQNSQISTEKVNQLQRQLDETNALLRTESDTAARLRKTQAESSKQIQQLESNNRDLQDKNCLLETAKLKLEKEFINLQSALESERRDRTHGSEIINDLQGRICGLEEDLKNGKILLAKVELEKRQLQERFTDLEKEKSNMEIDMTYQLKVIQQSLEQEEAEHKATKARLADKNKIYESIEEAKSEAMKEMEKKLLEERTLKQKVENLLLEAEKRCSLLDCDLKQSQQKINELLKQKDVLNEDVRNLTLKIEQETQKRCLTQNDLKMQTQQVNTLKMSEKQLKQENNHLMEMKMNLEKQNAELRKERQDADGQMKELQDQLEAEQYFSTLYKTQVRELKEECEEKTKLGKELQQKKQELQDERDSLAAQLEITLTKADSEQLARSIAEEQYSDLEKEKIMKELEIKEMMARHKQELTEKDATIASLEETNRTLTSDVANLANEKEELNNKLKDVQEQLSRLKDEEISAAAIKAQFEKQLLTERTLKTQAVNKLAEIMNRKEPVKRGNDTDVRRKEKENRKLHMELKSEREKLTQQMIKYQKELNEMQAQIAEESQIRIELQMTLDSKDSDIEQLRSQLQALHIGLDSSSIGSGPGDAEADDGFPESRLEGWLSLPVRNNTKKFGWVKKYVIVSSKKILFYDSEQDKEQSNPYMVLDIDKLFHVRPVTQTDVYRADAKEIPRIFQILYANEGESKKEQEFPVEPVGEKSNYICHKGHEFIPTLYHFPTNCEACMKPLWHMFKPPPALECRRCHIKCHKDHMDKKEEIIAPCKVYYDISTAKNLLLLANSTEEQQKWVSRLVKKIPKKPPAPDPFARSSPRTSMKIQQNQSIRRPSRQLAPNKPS
In short: as §1

Chain of Rho kinase 1 (ROCK-I) (Q13464 whole entry): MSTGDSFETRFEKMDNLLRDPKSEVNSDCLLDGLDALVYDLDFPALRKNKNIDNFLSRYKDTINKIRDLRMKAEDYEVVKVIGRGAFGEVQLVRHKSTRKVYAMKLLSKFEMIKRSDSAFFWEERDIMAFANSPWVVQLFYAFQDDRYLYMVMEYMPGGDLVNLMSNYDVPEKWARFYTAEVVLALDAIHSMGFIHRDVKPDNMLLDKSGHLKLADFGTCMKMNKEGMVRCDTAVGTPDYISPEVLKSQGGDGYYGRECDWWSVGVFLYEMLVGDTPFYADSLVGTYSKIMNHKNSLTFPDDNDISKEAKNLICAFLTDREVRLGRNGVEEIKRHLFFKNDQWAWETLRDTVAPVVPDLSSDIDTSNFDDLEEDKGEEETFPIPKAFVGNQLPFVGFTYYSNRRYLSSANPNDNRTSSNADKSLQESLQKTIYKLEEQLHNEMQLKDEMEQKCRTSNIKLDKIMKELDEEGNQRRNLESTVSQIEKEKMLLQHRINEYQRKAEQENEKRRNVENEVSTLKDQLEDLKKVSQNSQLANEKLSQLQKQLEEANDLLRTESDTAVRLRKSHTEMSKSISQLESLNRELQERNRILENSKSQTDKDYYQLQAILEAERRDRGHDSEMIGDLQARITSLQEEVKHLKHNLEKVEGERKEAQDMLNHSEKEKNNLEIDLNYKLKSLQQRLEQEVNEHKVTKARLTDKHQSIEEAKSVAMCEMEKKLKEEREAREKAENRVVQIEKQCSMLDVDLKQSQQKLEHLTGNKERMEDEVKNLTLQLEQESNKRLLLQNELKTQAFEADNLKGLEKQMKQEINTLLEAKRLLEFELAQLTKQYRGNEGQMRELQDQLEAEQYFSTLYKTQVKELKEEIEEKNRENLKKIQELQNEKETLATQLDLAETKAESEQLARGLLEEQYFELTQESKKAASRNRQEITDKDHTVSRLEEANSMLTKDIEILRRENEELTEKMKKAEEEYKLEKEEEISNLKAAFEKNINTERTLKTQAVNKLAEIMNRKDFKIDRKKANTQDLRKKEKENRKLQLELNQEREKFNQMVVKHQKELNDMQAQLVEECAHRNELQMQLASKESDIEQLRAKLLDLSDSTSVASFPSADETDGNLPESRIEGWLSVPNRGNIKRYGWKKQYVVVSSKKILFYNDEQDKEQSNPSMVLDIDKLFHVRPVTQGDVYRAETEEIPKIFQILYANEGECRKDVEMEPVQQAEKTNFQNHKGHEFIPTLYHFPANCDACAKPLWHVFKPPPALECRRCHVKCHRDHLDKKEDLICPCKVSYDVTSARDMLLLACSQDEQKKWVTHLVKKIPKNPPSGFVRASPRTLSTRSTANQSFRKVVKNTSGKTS

Row | Structure (SMILES) | Ki [1] [nM] | Ki [2] [nM]
1 | CN(CC1CCCCC1)C(=O)[C@@H](N)Cc1ccc(Oc2ccnc3[nH]ccc23)cc1 [Example 92, (S)-3-(4-((1H-pyrrolo[2,3-b]pyridin-4-yl)oxy)phenyl)-2-amino-N-(cyclohexylmethyl)-N-methylpropanamide] | 3 to 30 | 3 to 30
2 | Cc1c[nH]c2ncnc(Oc3ccc(C[C@H](N)C(=O)NC4CCOCC4)cc3F)c12 [Example 125, (S)-2-amino-3-(3-fluoro-4-((5-methyl-7H-pyrrolo[2,3-d]pyrimidin-4-yl)oxy)phenyl)-N-(tetrahydro-2H-pyran-4-yl)propanamide] | 3 to 30 | 3 to 30
3 | N[C@@H](Cc1ccc(Oc2ccnc3[nH]ccc23)cn1)C(=O)NC1CCCCC1 [Example 227, (S)-3-(5-((1H-pyrrolo[2,3-b]pyridin-4-yl)oxy)pyridin-2-yl)-2-amino-N-cyclohexylpropanamide] | > 30 | > 30
4 | CN(C)C(Cc1ccc(Oc2ccnc3[nH]ccc23)cc1)C(=O)NC1CCOCC1 (centres unmarked) [Example 182, 3-(4-((1H-pyrrolo[2,3-b]pyridin-4-yl)oxy)phenyl)-2-(dimethylamino)-N-(tetrahydro-2H-pyran-4-yl)propanamide] | > 30 | > 30
5 | N[C@@H](Cc1ccc(Oc2ccnc3[nH]ccc23)cc1)C(=O)NCC1CCCCC1 [Example 107, (S)-3-(4-((1H-pyrrolo[2,3-b]pyridin-4-yl)oxy)phenyl)-2-amino-N-(cyclohexylmethyl)propanamide] | < 3 | < 3
6 | Cc1c[nH]c2nccc(Oc3ccc(C[C@H](N)C(=O)N4CCN(C(=O)c5cccnc5)CC4)cc3F)c12 [Example 174, (S)-2-amino-3-(3-fluoro-4-((3-methyl-1H-pyrrolo[2,3-b]pyridin-4-yl)oxy)phenyl)-1-(4-nicotinoylpiperazin-1-yl)propan-1-one] | < 3 | < 3
7 | Cc1c[nH]c2nccc(Oc3ccc(C[C@H](N)C(=O)NC4(CO)CCCCC4)cc3F)c12 [Example 32, (S)-2-amino-3-(3-fluoro-4-((3-methyl-1H-pyrrolo[2,3-b]pyridin-4-yl)oxy)phenyl)-N-(1-(hydroxymethyl)cyclohexyl)propanamide] | < 3 | < 3
8 | CN(CC1CCCCC1)C(=O)[C@H](N)Cc1ccc(Oc2ccnc3[nH]ccc23)cc1 [Example 143, (R)-3-(4-((1H-pyrrolo[2,3-b]pyridin-4-yl)oxy)phenyl)-2-amino-N-(cyclohexylmethyl)-N-methylpropanamide] | > 30 | > 30
9 | Cc1c[nH]c2nccc(Oc3ccc(C[C@H](N)C(=O)NC4CCCCC4)cc3F)c12 [Example 20, (S)-2-amino-N-cyclohexyl-3-(3-fluoro-4-((3-methyl-1H-pyrrolo[2,3-b]pyridin-4-yl)oxy)phenyl)propanamide] | < 3 | < 3
10 | N[C@@H](Cc1ccc(Oc2ccnc3[nH]ccc23)cc1)C(=O)Nc1ccccc1 [Example 109, (S)-3-(4-((1H-pyrrolo[2,3-b]pyridin-4-yl)oxy)phenyl)-2-amino-N-phenylpropanamide] | 3 to 30 | 3 to 30
11 | N[C@@H](Cc1ccc(Oc2ccnc3[nH]cc(CO)c23)c(F)c1)C(=O)N1CCN(Cc2ccccn2)CC1 [Example 213, (S)-2-amino-3-(3-fluoro-4-((3-(hydroxymethyl)-1H-pyrrolo[2,3-b]pyridin-4-yl)oxy)phenyl)-1-(4-(pyridin-2-ylmethyl)piperazin-1-yl)propan-1-one] | < 3 | < 3
12 | Cc1c[nH]c2nccc(Oc3ccc(C[C@H](N)C(=O)NC4(CO)CCOCC4)cc3F)c12 [Example 33, (S)-2-amino-3-(3-fluoro-4-((3-methyl-1H-pyrrolo[2,3-b]pyridin-4-yl)oxy)phenyl)-N-(4-(hydroxymethyl)tetrahydro-2H-pyran-4-yl)propanamide] | < 3 | < 3
13 | Cc1c[nH]c2nccc(Oc3ccc(C[C@H](N)C(=O)N4CCN(Cc5ccccn5)CC4)cc3F)c12 [Example 27, (S)-2-amino-3-(3-fluoro-4-((3-methyl-1H-pyrrolo[2,3-b]pyridin-4-yl)oxy)phenyl)-1-(4-(pyridin-2-ylmethyl)piperazin-1-yl)propan-1-one] | < 3 | < 3

Further lines, results first:

Row | Ki [1] [nM] | Ki [2] [nM] | Structure (SMILES)
14 | < 3 | < 3 | N[C@@H](Cc1ccc(Oc2ccnc3[nH]cc(-c4ccc(O)cc4)c23)cc1)C(=O)N1CCN(Cc2ccccc2)CC1 [Example 200, (S)-2-amino-1-(4-benzylpiperazin-1-yl)-3-(4-((3-(4-hydroxyphenyl)-1H-pyrrolo[2,3-b]pyridin-4-yl)oxy)phenyl)propan-1-one]
15 | < 3 | < 3 | Cc1c[nH]c2nccc(Oc3ccc(CC(N)C(=O)N4CCc5ccncc5C4)cc3F)c12 (centres unmarked) [Example 67, 2-amino-1-(3,4-dihydro-2,7-naphthyridin-2(1H)-yl)-3-(3-fluoro-4-((3-methyl-1H-pyrrolo[2,3-b]pyridin-4-yl)oxy)phenyl)propan-1-one]
16 | < 3 | < 3 | Cc1c[nH]c2nccc(Oc3ccc(CC(N)C(=O)N4CCN(CC5CC5)CC4)cc3F)c12 (centres unmarked) [Example 58, 2-amino-1-(4-(cyclopropylmethyl)piperazin-1-yl)-3-(3-fluoro-4-((3-methyl-1H-pyrrolo[2,3-b]pyridin-4-yl)oxy)phenyl)propan-1-one]
17 | < 3 | < 3 | Cc1c[nH]c2nccc(Oc3ccc(C[C@H](N)C(=O)N4CCN(Cc5csnn5)CC4)cc3F)c12 [Example 164, (S)-1-(4-((1,2,3-thiadiazol-4-yl)methyl)piperazin-1-yl)-2-amino-3-(3-fluoro-4-((3-methyl-1H-pyrrolo[2,3-b]pyridin-4-yl)oxy)phenyl)propan-1-one]
18 | < 3 | < 3 | Cc1c[nH]c2nccc(Oc3ccc(CC(N)C(=O)NCCc4ccncc4)cc3F)c12 (single isomer, unassigned) [Example 57B, 2-amino-3-(3-fluoro-4-((3-methyl-1H-pyrrolo[2,3-b]pyridin-4-yl)oxy)phenyl)-N-(2-(pyridin-4-yl)ethyl)propanamide]
19 | < 3 | < 3 | CN1CCC(NC(=O)[C@@H](N)Cc2ccc(Oc3ccnc4[nH]cc(-c5ccccc5)c34)c(F)c2)CC1 [Example 204, (S)-2-amino-3-(3-fluoro-4-((3-phenyl-1H-pyrrolo[2,3-b]pyridin-4-yl)oxy)phenyl)-N-(1-methylpiperidin-4-yl)propanamide]
20 | < 3 | < 3 | Cc1c[nH]c2nccc(Oc3ccc(C[C@H](N)C(=O)NC4(CO)CCN(C)CC4)cc3F)c12 [Example 37, (S)-2-amino-3-(3-fluoro-4-((3-methyl-1H-pyrrolo[2,3-b]pyridin-4-yl)oxy)phenyl)-N-(4-(hydroxymethyl)-1-methylpiperidin-4-yl)propanamide]
21 | < 3 | < 3 | Cc1c[nH]c2nccc(Oc3ccc(C[C@H](N)C(=O)N4CCN(c5ccccc5)CC4)cc3F)c12 [Example 5, (S)-2-amino-3-(3-fluoro-4-((3-methyl-1H-pyrrolo[2,3-b]pyridin-4-yl)oxy)phenyl)-1-(4-phenylpiperazin-1-yl)propan-1-one]
22 | < 3 | < 3 | Cc1c[nH]c2nccc(Oc3ccc(CC(N)C(=O)Nc4cccc5cnccc45)cc3F)c12 (centres unmarked) [Example 78, 2-amino-3-(3-fluoro-4-((3-methyl-1H-pyrrolo[2,3-b]pyridin-4-yl)oxy)phenyl)-N-(isoquinolin-5-yl)propanamide]
